Experimental data as given in patent publication US20250361230A1, “LATS Inhibitors and Uses Thereof” (The USA, as Represented by the Secretary, Dept. of Heath …, priority 2022, published 2025).

How the values were obtained:
Type in all cases: biochemical
LATS1 = biological target: T1, LATS1 (Homo sapiens, UniProt O95835); assay: RBC HotSpot kinase assay (33P-ATP, P81 filter-binding), LATS1; settings: Table 28, biochemical kinase assay; read-out: LATS1 IC50
T1 sequence (O95835 1-1130): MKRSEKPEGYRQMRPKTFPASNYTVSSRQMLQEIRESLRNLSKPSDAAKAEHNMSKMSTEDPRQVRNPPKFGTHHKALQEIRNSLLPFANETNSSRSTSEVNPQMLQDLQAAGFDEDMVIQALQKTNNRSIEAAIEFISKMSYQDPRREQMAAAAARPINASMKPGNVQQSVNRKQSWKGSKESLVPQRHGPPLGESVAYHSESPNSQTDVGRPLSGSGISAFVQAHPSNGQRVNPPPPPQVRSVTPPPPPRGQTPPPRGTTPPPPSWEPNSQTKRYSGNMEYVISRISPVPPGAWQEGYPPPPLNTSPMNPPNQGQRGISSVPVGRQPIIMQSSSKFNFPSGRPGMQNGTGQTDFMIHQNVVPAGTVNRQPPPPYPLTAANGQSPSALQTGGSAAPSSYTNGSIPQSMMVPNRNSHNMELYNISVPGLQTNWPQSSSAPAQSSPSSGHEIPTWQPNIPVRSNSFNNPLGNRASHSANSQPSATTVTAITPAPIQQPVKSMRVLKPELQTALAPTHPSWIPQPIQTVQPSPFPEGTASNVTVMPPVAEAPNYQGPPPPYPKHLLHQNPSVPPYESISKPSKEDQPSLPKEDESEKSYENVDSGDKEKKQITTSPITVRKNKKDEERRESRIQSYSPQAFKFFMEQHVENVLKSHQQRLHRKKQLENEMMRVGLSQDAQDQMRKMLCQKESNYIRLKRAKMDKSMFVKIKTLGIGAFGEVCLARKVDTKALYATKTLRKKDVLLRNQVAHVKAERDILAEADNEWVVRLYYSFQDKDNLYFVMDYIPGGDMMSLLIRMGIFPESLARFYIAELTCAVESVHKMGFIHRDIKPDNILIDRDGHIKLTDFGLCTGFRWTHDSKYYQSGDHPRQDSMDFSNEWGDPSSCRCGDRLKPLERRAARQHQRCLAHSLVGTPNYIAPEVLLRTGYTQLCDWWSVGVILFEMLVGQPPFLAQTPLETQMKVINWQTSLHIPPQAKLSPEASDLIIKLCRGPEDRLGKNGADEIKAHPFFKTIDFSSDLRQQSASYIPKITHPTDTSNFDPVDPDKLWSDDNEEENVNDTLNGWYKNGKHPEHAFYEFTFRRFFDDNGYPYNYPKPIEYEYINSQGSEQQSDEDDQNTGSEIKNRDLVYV
Procedure, shortened: (§1)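 Kinase in Hepes pH 7.5 buffer with Mg2+, EGTA, Brij35, BSA, vanadate, DTT and 1% DMSO, plus required cofactors and substrate, was preincubated 20 min at room temperature with compound. Reaction was started with 33P-ATP and run 2 h, then detected by P81 filter binding. IC50 (nM) came from 10-point singlet curves.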

LATS2 = biological target: T2, LATS2 (Homo sapiens, UniProt Q9NRM7); assay: RBC HotSpot kinase assay (33P-ATP, P81 filter-binding), LATS2; settings: Table 28, biochemical kinase assay; read-out: LATS2 IC50
T2 sequence (Q9NRM7 1-1088): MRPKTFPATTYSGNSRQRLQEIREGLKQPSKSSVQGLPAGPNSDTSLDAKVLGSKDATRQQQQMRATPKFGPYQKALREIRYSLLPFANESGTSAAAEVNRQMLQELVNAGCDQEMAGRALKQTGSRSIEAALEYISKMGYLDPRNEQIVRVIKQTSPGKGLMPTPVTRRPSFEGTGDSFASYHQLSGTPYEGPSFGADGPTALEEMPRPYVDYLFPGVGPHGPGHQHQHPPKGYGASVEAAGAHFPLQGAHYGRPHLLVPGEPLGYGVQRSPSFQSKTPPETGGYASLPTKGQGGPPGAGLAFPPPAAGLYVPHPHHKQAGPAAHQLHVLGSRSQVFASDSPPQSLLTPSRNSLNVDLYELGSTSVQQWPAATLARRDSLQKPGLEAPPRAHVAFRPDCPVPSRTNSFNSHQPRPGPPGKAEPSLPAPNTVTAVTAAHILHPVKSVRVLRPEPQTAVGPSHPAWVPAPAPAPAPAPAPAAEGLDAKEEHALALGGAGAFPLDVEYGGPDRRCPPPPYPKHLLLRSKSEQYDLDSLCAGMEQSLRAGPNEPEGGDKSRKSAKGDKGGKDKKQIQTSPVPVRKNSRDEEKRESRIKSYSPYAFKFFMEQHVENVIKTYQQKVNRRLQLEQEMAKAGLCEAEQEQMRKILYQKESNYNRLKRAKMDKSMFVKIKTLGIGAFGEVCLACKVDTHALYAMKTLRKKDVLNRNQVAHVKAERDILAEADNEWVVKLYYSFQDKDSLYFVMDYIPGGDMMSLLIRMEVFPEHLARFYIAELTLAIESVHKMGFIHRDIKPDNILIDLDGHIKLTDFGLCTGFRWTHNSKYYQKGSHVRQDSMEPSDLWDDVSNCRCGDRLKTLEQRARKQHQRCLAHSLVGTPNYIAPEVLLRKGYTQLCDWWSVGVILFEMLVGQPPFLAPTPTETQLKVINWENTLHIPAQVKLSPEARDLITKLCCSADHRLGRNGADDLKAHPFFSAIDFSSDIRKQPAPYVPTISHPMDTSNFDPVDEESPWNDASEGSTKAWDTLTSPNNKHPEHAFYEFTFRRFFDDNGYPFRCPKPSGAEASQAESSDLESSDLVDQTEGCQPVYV
Procedure, shortened: as §1

AKT = AKT (Homo sapiens, UniProt P31749); assay: RBC HotSpot kinase assay (33P-ATP, P81 filter-binding), AKT; settings: Table 28, biochemical kinase assay; read-out: AKT IC50
Procedure, shortened: as §1

AKT, sequence (P31749 whole entry): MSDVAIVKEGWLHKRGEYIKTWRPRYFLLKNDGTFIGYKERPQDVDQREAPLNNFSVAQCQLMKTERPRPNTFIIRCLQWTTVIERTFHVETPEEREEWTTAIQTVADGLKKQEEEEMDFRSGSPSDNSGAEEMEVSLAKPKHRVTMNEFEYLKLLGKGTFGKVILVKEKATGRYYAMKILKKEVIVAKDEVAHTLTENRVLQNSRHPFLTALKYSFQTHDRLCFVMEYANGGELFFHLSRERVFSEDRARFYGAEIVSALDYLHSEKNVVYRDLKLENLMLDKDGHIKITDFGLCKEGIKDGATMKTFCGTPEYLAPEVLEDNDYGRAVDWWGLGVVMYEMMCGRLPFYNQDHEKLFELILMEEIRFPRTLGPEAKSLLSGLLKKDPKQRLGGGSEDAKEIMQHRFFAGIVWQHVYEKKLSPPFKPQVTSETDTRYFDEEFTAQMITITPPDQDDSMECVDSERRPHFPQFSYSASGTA

NCc1ccc(-c2c(Cl)cnc3[nH]ccc23)cc1 [Compound 272, (4-(5-chloro-1H-pyrrolo[2,3-b]pyridin-4-yl)phenyl) methanamine]
IC50 (LATS1): 447 nM
IC50 (LATS2): 268 nM
IC50 (AKT): 3100 nM

Cc1cc(-c2ccnc3[nH]cc(F)c23)cc(Cl)c1[C@@]1(O)[C@H](C)CNC[C@@H]1C [Compound 12, (3S,4s,5R)-4-(2-chloro-4-(3-fluoro-1H-pyrrolo[2,3-b]pyridin-4-yl)-6-methylphenyl)-3,5-dimethylpiperidin-4-ol]
IC50 (LATS1): 201 nM
IC50 (LATS2): 81.2 nM
IC50 (AKT): 10.1 nM

Cc1cc(-c2ccnc3[nH]cc(Cl)c23)cc(F)c1[C@@]1(O)[C@H](C)CN(C2CCS(=O)(=O)CC2)C[C@@H]1C [Compound 307, 4-((3S,4s,5R)-4-(4-(3-chloro-1H-pyrrolo[2,3-b]pyridin-4-yl)-2-fluoro-6-methylphenyl)-4-hydroxy-3,5-dimethylpiperidin-1-yl)tetrahydro-2H-thiopyran 1,1-dioxide]
IC50 (LATS1): 4.2 nM
IC50 (LATS2): 3.1 nM
IC50 (AKT): 206 nM

COC(=O)c1c[nH]c2nccc(-c3ccc(C4CCNCC4)c(-c4ccc(CN)cc4)c3)c12 [Compound 152, methyl 4-(4′-(aminomethyl)-6-(piperidin-4-yl)-[1,1′-biphenyl]-3-yl)-1H-pyrrolo[2,3-b]pyridine-3-carboxylate]
IC50 (LATS1): 66.3 nM
IC50 (LATS2): 50.2 nM
IC50 (AKT): 4410 nM

NC(=O)c1ccc(-c2ccnc3[nH]ccc23)cc1 [Compound 264, 4-(1H-pyrrolo[2,3-b]pyridin-4-yl)benzamide]
IC50 (LATS1): 343 nM
IC50 (LATS2): 207 nM
IC50 (AKT): > 10000 nM

CN1CCC(O)(c2ccc(-c3ccnc4[nH]cc(-c5cccnc5)c34)cc2)CC1 [Compound 128, 1-methyl-4-(4-(3-(pyridin-3-yl)-1H-pyrrolo[2,3-b]pyridin-4-yl)phenyl)piperidin-4-ol]
IC50 (LATS1): 31 nM
IC50 (LATS2): 36 nM
IC50 (AKT): 2050 nM

Cc1cc(-c2ccnc3[nH]cc(F)c23)cc(F)c1C1(O)[C@H](C)CN(C(=O)C2CC(F)(F)C2)C[C@@H]1C (stereo partly drawn) [Compound 73, (3,3-difluorocyclobutyl) ((3S,5R)-4-(2-fluoro-4-(3-fluoro-1H-pyrrolo[2,3-b]pyridin-4-yl)-6-methylphenyl)-4-hydroxy-3,5-dimethylpiperidin-1-yl)methanone]
IC50 (LATS1): 14.7 nM
IC50 (LATS2): 32.7 nM
IC50 (AKT): 6470 nM

CC(C)(C)Nc1cc(-c2ccnc3[nH]ccc23)ccc1C1CCNCC1 [Compound 157, N-(tert-butyl)-2-(piperidin-4-yl)-5-(1H-pyrrolo[2,3-b]pyridin-4-yl)aniline]
IC50 (LATS1): 216 nM
IC50 (LATS2): 109 nM
IC50 (AKT): 1650 nM

Cc1cc(-c2ccnc3[nH]cc(F)c23)cc(F)c1C1(O)CC2(CNC2)C1 [Compound 108, 6-(2-fluoro-4-(3-fluoro-1H-pyrrolo[2,3-b]pyridin-4-yl)-6-methylphenyl)-2-azaspiro[3.3]heptan-6-ol]
IC50 (LATS1): 17.4 nM
IC50 (LATS2): 24.8 nM
IC50 (AKT): 1270 nM

Cc1cc(-c2ccnc3[nH]cc(F)c23)cc(F)c1[C@@]1(O)[C@H](C)CN(C(=O)[C@@H]2C[C@@H](F)CN2)C[C@@H]1C [Compound 66, ((3S,4R,5R)-4-(2-fluoro-4-(3-fluoro-1H-pyrrolo[2,3-b]pyridin-4-yl)-6-methylphenyl)-4-hydroxy-3,5-dimethylpiperidin-1-yl)((2S,4R)-4-fluoropyrrolidin-2-yl)methanone]
IC50 (LATS1): 13 nM
IC50 (LATS2): 3 nM
IC50 (AKT): 673 nM

CC(C)(O)C#Cc1cc(-c2ccnc3[nH]ccc23)ccc1CNCc1ccc(F)cc1 [Compound 281, 4-(2-(((4-fluorobenzyl)amino)methyl)-5-(1H-pyrrolo[2,3-b]pyridin-4-yl)phenyl)-2-methylbut-3-yn-2-ol]
IC50 (LATS1): 82.4 nM
IC50 (LATS2): 170 nM
IC50 (AKT): 4620 nM

NCc1ccc(-c2ccnc3[nH]cc(-c4ccc(F)cc4)c23)cc1 [Compound 243, (4-(3-(4-fluorophenyl)-1H-pyrrolo[2,3-b]pyridin-4-yl)phenyl) methanamine]
IC50 (LATS1): 72 nM
IC50 (LATS2): 24 nM
IC50 (AKT): 2330 nM

CC1CN(C)CC(C)C1(O)c1ccc(-c2ccnc3[nH]cc(F)c23)cc1-c1ccccc1 (stereo not drawn) [Compound 129, 4-(5-(3-fluoro-1H-pyrrolo[2,3-b]pyridin-4-yl)-[1,1′-biphenyl]-2-yl)-1,3,5-trimethylpiperidin-4-ol]
IC50 (LATS1): 157 nM
IC50 (LATS2): 190 nM
IC50 (AKT): 233 nM

CC1CC(O)(c2ccc(-c3ccnc4[nH]cc(F)c34)cc2Cl)CC(C)N1 (stereo not drawn) [Compound 100, 4-(2-chloro-4-(3-fluoro-1H-pyrrolo[2,3-b]pyridin-4-yl)phenyl)-2,6-dimethylpiperidin-4-ol]
IC50 (LATS1): 230 nM
IC50 (LATS2): 195 nM
IC50 (AKT): 1900 nM

c1cncc(-c2cc(-c3ccnc4[nH]ccc34)ccc2C2CCNCC2)c1 [Compound 154, 4-(4-(piperidin-4-yl)-3-(pyridin-3-yl)phenyl)-1H-pyrrolo[2,3-b]pyridine]
IC50 (LATS1): 87 nM
IC50 (LATS2): 48 nM
IC50 (AKT): 1320 nM

Cc1nc(-c2ccnc3[nH]cc(F)c23)ccc1C1(O)CCNCC1 [Compound 104, 4-(6-(3-fluoro-1H-pyrrolo[2,3-b]pyridin-4-yl)-2-methylpyridin-3-yl)piperidin-4-ol]
IC50 (LATS1): 145 nM
IC50 (LATS2): 326 nM
IC50 (AKT): 6580 nM

C[C@@H]1CN(C2COC2)C[C@H](C)C1(O)c1cnc(-c2ccnc3[nH]cc(F)c23)cc1F (stereo partly drawn) [Compound 36, (3S,5R)-4-(4-fluoro-6-(3-fluoro-1H-pyrrolo[2,3-b]pyridin-4-yl)pyridin-3-yl)-3,5-dimethyl-1-(oxetan-3-yl)piperidin-4-ol]
IC50 (LATS1): 98.5 nM
IC50 (LATS2): 79.6 nM
IC50 (AKT): > 1000 nM

OC1(c2ccc(-c3ccnc4[nH]cc(F)c34)cc2Cl)C2CNCC1C2 (stereo not drawn) [Compound 102, 6-(2-chloro-4-(3-fluoro-1H-pyrrolo[2,3-b]pyridin-4-yl)phenyl)-3-azabicyclo[3.1.1]heptan-6-ol]
IC50 (LATS1): 82 nM
IC50 (LATS2): 224 nM
IC50 (AKT): 4870 nM

CC(C)c1cc(-c2ccnc3[nH]cc(-c4ccccc4)c23)ccc1CN [Compound 202, (2-isopropyl-4-(3-phenyl-1H-pyrrolo[2,3-b]pyridin-4-yl)phenyl)methanamine]
IC50 (LATS1): 17 nM
IC50 (LATS2): 7 nM
IC50 (AKT): 743 nM
